Assay results reported in patent publication US20250249001A1, “METHODS OF TREATING SUBSTANCE USE DISORDER WITH 4-(3-CYANOPHENYL)-6-PYRIDINYLPYRIMIDINE MGLU5 NEGATIVE ALLOSTERIC MODULATORS” (Tempero Bio, Inc., priority 2022, published 2025).

Experiments:
[1] = system: cue-induced reinstatement of alcohol-seeking behavior in Wistar rats; test: Cue-induced reinstatement of alcohol-seeking behavior; format: in vivo; conditions: 10 mg/kg IP
Excerpt: Operant alcohol self-administration training. Male Wistar rats (n=12) were trained to self-administer alcohol in two-lever operant conditioning chambers as described above. A total of n=11 rats completed the experiment. […] Fluid cups were inspected at the end of each session to verify intake. Extinction.
Cue-induced reinstatement test. On the next day, rats were given a reinstatement test in which lever press responses were followed by presentation of the cue light and auditory pump sound (as during training) but in the absence of ethanol reinforcement to examine cue-induced alcohol-seeking behavior (see Cue-induced reinstatement method FIG. 9A, right panel). One hour prior to the reinstatement session rats were divided into 2 equal subgroups groups and administered Compound 1 (0 or 10 mg/kg, IP) to determine if Compound 1 alters cue-induced reinstatement of alcohol-seeking behavior as compared to vehicle control. Groups were matched on body weight, baseline response totals, and extinction performance prior to drug testing. After this test, rats were returned to baseline conditions. […]

mGluR5 = conditions: cited from earlier work
[2] = system: Wistar rats, open-field locomotor activity; test: Open-field locomotor test for nonspecific behavioral effects; format: in vivo; conditions: 3 mg/kg i.p., 1-hr pretreatment
Protocol: Locomotor activity: testing for nonspecific behavioral effects. After completion of the Compound 1 dose response curve, potential nonspecific effects of Compound 1 (3 mg/kg) were assessed using the open-field locomotor test. This test evaluates potential effects on motor activity and anxiety-like behavior. Rats were administered Compound 1 (0 or 3 mg/kg, i.p.) in a randomized counterbalanced order. After a 1-hr pretreatment period (matching the pretreatment period used in the drinking study), rats were placed in the open-field apparatus and locomotor activity was computer-monitored for 1-hr. To assess anxiety-like behavior, activity in the center zone of the open field was analyzed.
Open-field locomotor test for nonspecific behavioral effects. Pharmacological manipulations have the potential to alter rodent behavior by producing nonspecific effects on motor ability, learning and memory, or emotional processing. The open field test is a widely used method for assessing all these potential nonspecific effects in a single test. In this method, rodents are injected with a test compound and placed in an open-field apparatus that records ambulatory behavior in real time via computer analysis of photobeam breaks (FIG. 3A). […] Similarly, Compound 1 (3 mg/kg) had no effect on summary measures of total ambulatory distance (FIG. 3C) or total ambulatory time (FIG. 3D) as compared to vehicle control.

[3] = system: operant alcohol self-administration in Wistar rats; test: Operant alcohol self-administration, repeated oral pellet treatment (A-B-A); format: in vivo; conditions: 10 mg/kg oral in palatable food pellet, 2-hr before daily sessions, 7 days (Days 6-12)
Protocol: Repeated treatment with Compound 1. To evaluate effects of repeated treatment with Compound 1 on operant alcohol self-administration, a separate group of rats (n=12) was trained to self-administer alcohol as described above. After operant behavior reached a stable baseline, habituation to i.p. injections were conducted as described above. […] Another group of rats (n=12) was then trained to self-administer alcohol and a new injection protocol (e.g., 2-hr pretreatment time) was initiated. […] In a final attempt to evaluate repeated treatment, we re-established baseline behavior in the same rats and administered Compound 1 (0 and 10 mg/kg) orally in a palatable food pellet as previously reported. Doses were administered according to an A-B-A (vehicle-Compound 1-vehicle) experimental design with 5 consecutive days of exposure to each vehicle treatment and 7 days of exposure to Compound 1. There was no observable stress response using this method of exposure. Operant self-administration (number of alcohol reinforced lever presses) was recorded during daily 15-min test sessions (n=12 rats).
In a final attempt to salvage the study, injections were halted in the second group of rats and EtOH self-administration behavior was allowed to stabilize over a 1-week period. […]

[4] = Phase 1 multiple ascending dose study, exposure; format: in vivo, healthy subjects; conditions: 100 mg/day (50 mg twice per day) oral; study suspended at day 9 after dosage of 6 patients
Excerpt: Example 5 presents the protocol for a suspended, multiple ascending dose (MAD) study to evaluate the safety, tolerability, and pharmacokinetics (PK) of Compound 1 in healthy subjects. In the following paragraphs, Example 5 is described in the future tense for sake of brevity; the study was suspended at day 9 after dosage of 6 patients. […] Example 6 presents the protocol for a planned, amended Phase 1 MAD study.
Study Objectives and Endpoints—See Table 12 for Study Objectives and Endpoints. There will be up to 4 dose cohorts, and within each cohort subjects will be randomly assigned to receive either active drug or placebo. Study subjects will be administered active drug or placebo twice daily for 14 days (note: only the AM dose is administered on Day 14).
Each subject will be randomly assigned to 1 of the following cohorts: Cohort 1: Group 1 (6 subjects): 50 mg of Compound 1 twice daily (bid); Group 2 (2 subjects): placebo (matching Compound 1) bid. Cohort 2: Group 3 (6 subjects): 100 mg of Compound 1 bid; Group 4 (2 subjects): placebo (matching Compound 1) bid. Cohort 3: Group 5 (6 subjects): 150 mg of Compound 1 bid; Group 6 (2 subjects): placebo (matching Compound 1) bid.

N#Cc1cc(Cl)cc(-c2cc(-c3ccc(F)cn3)ncn2)c1 [Compound 1, 3-chloro-5-[6-(5-fluoropyridin-2-yl)pyrimidin-4-yl]benzonitrile]
cue-induced reinstatement, total responses on the previously active lever ([1]; one hour prior to reinstatement session): blocked
cue-induced reinstatement, responding relative to extinction performance ([1]; vehicle ~400% of extinction level): fully blocked
affinity for mGluR5 (mGluR5; following systemic administration in rats, mice, and primates): high affinity
brain penetration (mGluR5; systemic administration): brain penetrant
motor activity in the center zone of the open field (anxiety-like behavior) [2]: normal avoidance of the center zone
total ambulatory distance [2]: no effect
total ambulatory time [2]: no effect
initial exploration or habituation to the novel open-field environment ([2]; 1-hr test): no effect
EtOH reinforced lever press responses, repeated treatment [3]: failed to alter operant alcohol self-administration
exposure in healthy subjects [4]: greater than expected exposure
